# Test results taken from patent US20010012832A1, “Method of hormone treatment for patients with symptoms consistent with multiple sclerosis” (priority 1999, published 2001).
# What was measured:
# [1] = test system: adult female mice having induced EAE; conditions: 0.6 mg subcutaneously over a ten day period; vs placebo; cited from earlier work
# IGF-I levels = experiment: Peak IGF-I levels in males and females before and after administration; type: in vivo, human
# Source text: IGF-I is directly dependent upon the secretion of HGH by the pituitary gland, so therefore there is a direct linkage between increased secretion of HGH and increased production of IGF-I. Table II presents the effects of the low dose at high frequency human growth hormone administration (low dose-high frequency) contemplated by the invention on IGF-I (somatomedin C) blood levels. FIGS. 8 and 9 present the peak IGF-I levels in males and females, respectively, before and after administration of […]. FIGS. 8 and 9 show mean, minimum and maximum, and 25, 50, and 75 percentile for 204 males and 91 females, respectively.
# The method of determining the level of the select group of hormones may be accomplished by a simple blood test. A patients' blood is evaluated for the hormone levels of the select group of hormones and those levels are compared to the optimal or predetermined physiological levels set forth in Table I. Based on the comparison of a patient's hormone levels with the optimal or predetermined physiological levels, a regimen is established for the patient for the replenishment of the level of deficient hormones to optimal physiological levels. It is further contemplated, that after the initial evaluation and the establishment of the regimen, a patient is monitored every 30 days, by a similar blood test, until the patient attains the optimal or predetermined physiological level, and the dosages of hormone supplementation are adjusted accordingly. Once the target levels are established, the regimen directs that the patient continue to follow the established dosage of supplemental hormones indefinitely to maintain the optimal or predetermined physiological levels. Periodic blood tests are subsequently administered to assure that the optimal or predetermined physiological levels are maintained.
# [2] = test system: Somatomedin C Blood Levels; experiment: Somatomedin C blood levels before and after low dose-high frequency human growth hormone administration; type: in vivo; conditions: 47 patients; after vs before hGH
# Source text: IGF-I is directly dependent upon the secretion of HGH by the pituitary gland, so therefore there is a direct linkage between increased secretion of HGH and increased production of IGF-I. Table II presents the effects of the low dose at high frequency human growth hormone administration (low dose-high frequency) contemplated by the invention on IGF-I (somatomedin C) blood levels. FIGS. 8 and 9 present the peak IGF-I levels in males and females, respectively, before and after administration of […]. FIGS. 8 and 9 show mean, minimum and maximum, and 25, 50, and 75 percentile for 204 males and 91 females, respectively. The method of the invention also contemplates that the HGH is administered in keeping with the way the pituitary secretes HGH naturally. The low dose-high frequency method mimics the pituitary gland. The pituitary secretes HGH 24 hours a day, with the peaks during the first two hours of sleep. The method contemplates that the patients take lower doses more frequently to try to mimic the natural rhythm of the body as much as possible. The invention contemplates that the patients take HGH injections at least twice daily. A preferred regimen calls for subcutaneous injections of doses less than 0.5 mg per day (approximately 1-3 I.U.), administered twice daily. Typical doses for this regimen range from 4 units per week to 8 units per week.
substance,measurement,setting,value
Insulin-like Growth Factor-I [IGF-I],Clinical deficits in EAE mice,[1],reduced deficits
same,Lesions in EAE mice,[1],"reduced numbers and sizes of inflammatory, demyelinating and demyelinated lesions"
same,"Peak IFG levels FEMALES CHANGE, 25%ile",IGF-I levels; 91 females,26
same,"Peak IFG levels FEMALES CHANGE, 50%ile",IGF-I levels; 91 females,72
same,"Peak IFG levels FEMALES CHANGE, 75%ile",IGF-I levels; 91 females,128
same,"Peak IFG levels FEMALES CHANGE, MAX",IGF-I levels; 91 females,231
same,"Peak IFG levels FEMALES CHANGE, MEAN",IGF-I levels; 91 females,74.0
same,"Peak IFG levels FEMALES CHANGE, MEDIAN",IGF-I levels; 91 females,72
same,"Peak IFG levels FEMALES CHANGE, MIN",IGF-I levels; 91 females,−93
same,"Peak IFG levels FEMALES AFTER, 25%ile","IGF-I levels; 91 females, before 111",177
same,"Peak IFG levels FEMALES AFTER, 50%ile","IGF-I levels; 91 females, before 164",240
same,"Peak IFG levels FEMALES AFTER, 75%ile","IGF-I levels; 91 females, before 205",294
same,"Peak IFG levels FEMALES AFTER, MAX","IGF-I levels; 91 females, before max 311",378
same,"Peak IFG levels FEMALES AFTER, MEAN","IGF-I levels; 91 females, before mean 162.2, mean 133.4 days",236.3
same,"Peak IFG levels FEMALES AFTER, MEDIAN","IGF-I levels; 91 females, before median 154",240
same,"Peak IFG levels FEMALES AFTER, MIN","IGF-I levels; 91 females, before min 41",52
same,"Peak IFG levels MALES CHANGE, 25%ile",IGF-I levels; 204 males,24
same,"Peak IFG levels MALES CHANGE, 50%ile",IGF-I levels; 204 males,76
same,"Peak IFG levels MALES CHANGE, 75%ile",IGF-I levels; 204 males,125
same,"Peak IFG levels MALES CHANGE, MAX",IGF-I levels; 204 males,258
same,"Peak IFG levels MALES CHANGE, MEAN",IGF-I levels; 204 males,74.4
same,"Peak IFG levels MALES CHANGE, MEDIAN",IGF-I levels; 204 males,75.5
same,"Peak IFG levels MALES AFTER, 25%ile","IGF-I levels; 204 males, before 147",217
same,"Peak IFG levels MALES AFTER, 50%ile","IGF-I levels; 204 males, before 183",273
same,"Peak IFG levels MALES AFTER, 75%ile","IGF-I levels; 204 males, before 231",325
same,"Peak IFG levels MALES AFTER, MAX","IGF-I levels; 204 males, before max 361",396
same,"Peak IFG levels MALES AFTER, MEAN","IGF-I levels; 204 males, before mean 192.3, mean 118.5 days",266.7
same,"Peak IFG levels MALES AFTER, MEDIAN","IGF-I levels; 204 males, before median 183",272.5
same,"Peak IFG levels MALES AFTER, MIN","IGF-I levels; 204 males, before min 21",63
human growth hormone [hGH],"Somatomedin C Blood Levels Increase, Mean",[2],61.0%
